In experiment [1] the test system is insulin-like growth factor binding protein expression in ES2 cells. In words: Microarray gene expression, Table 16. The class given is cell-based, human. To be noted: for IGFBP7 insulin-like growth factor binding protein 7, gene expression ratio to no drug control (D): probe 201163_s_at; for IGFBP4 insulin-like growth factor binding protein 4, gene expression ratio to no drug control (D): probe 201508_at; for IGFBP6 insulin-like growth factor binding protein 6, gene expression ratio to no drug control (D): probe 203851_at; for IGFBP1 insulin-like growth factor binding protein 1, gene expression ratio to no drug control (D): probe 205302_at. The method, then: (§1) Y/D is the ratio (in folds) of gene expression in cells treated with compound Y as compared with those of the no drug control (D),
(§2) YM/D is the ratio of gene expression in cells treated with compound YM (ACH-Y, Y without sugar moiety) compared with those of the no drug control (D)
(§3) Cell culture and drug-treatment.: ES2 cells were seeded in a T-25 flask with 4.5 million cells per flask for 24 hours. Cell culture was replaced with fresh medium with xanifolia-Y (Y) or DMSO no drug control (D) for 24 hours. Cells were then harvested for RNA isolation. Three experiments were done.
(§4) RNA extraction, labeling, hybridization, and data analysis. RNA was extracted from tumor cells using the Qiagen RNeasy Kit. RNA quality and quantity was checked by the Agilent BioAnalyzer and the NanoDrop® ND-1000 spectrophotometer respectively before further manipulation. The first and second cDNA strands were synthesized from 20 ng of total RNA using the Affymetrix T7 oligo(dT) primer protocol and kit for the two-cycle amplification. To produce amplified biotin-labeled-cRNA, the cDNA was […] by in vitro transcription using the MegaScript kit from Ambion. 15.0 μg of the labeled cRNA was fragmented and re-checked for concentration using the NanoDrop® ND-1000 spectrophotometer. A hybridization cocktail containing Affymetrix spike-in controls and fragmented labeled cRNA was loaded onto the Human U133 Plus 2.0 GeneChip® oligonucleotide array. The Affymetrix array (Affymetrix, Inc. Santa Clara, Calif.) is comprised of over 1,300,000 unique oligonucleotide features that represent greater than 38,500 well-substantiated human genes. The array was hybridized for 16 hours at 45° C. with rotation at 60 rpm then washed and stained with a strepavidin, R-phycoerythrin conjugate stain on the Affymetrix Fluidicis Station 450. Signal amplification was done using biotinylated antistreptavidin. The arrays were scanned using the GeneChip® 3000 confocal laser scanner with autoloader. The images were analyzed and quality control metrics recorded using Affymetrix GCOS software version 1.4. Lastly, the expression value for each gene was calculated using dChip PM-only model based or Plier algorithm.
(§5) Pairwise comparisons were made as follows: Treated vs. Control (Y vs. D), Modified Drug vs Control (YM/ACY-H vs. D) and Treated vs. Modified Drug (Y vs. YM/ACH-Y) Cel files analyzed using the Bioconductor package of R Statistical programming. Limma analysis generated a reasonable number of changing genes between the samples.
(§6) The raw data in the .CEL files were normalized by the GCRMA method (robust multi-array analysis). It is implemented in Bioconductor (http://www.bioconductor.org/). The raw signal intensity data were normalized, background corrected and summarized based on certain statistical models, and an expression value, in log 2-scale, is obtained per chip per probe set. Then the null hypothesis was tested that there's no significant changes in gene expression between the treatment pairs. This was done by LIMMA and is also implemented in Bioconductor. It uses empirical Bayes method to estimate the variance in gene expression. One comparison was made, namely, High Grade vs. Low Grade. The raw p-values were adjusted by the Benjamnin-Hochberg method for false discovery rate (FDR) control. All data sets contained a significant number of genes with a p-value less than 0.05, which is that the probability that a gene is NOT differential expressed (false positive) is 1:20.

The subject of experiment [2] is phosphatase, protein expression in ES2 cells. Description: Microarray gene expression, Table 19. The class given is cell-based, human. The method, then:
as §1, §2, §3, §4, §5, §6

Experiment [3] concerns integrin (vitronectin receptor) expression in ES2 cells. In words: Microarray gene expression, Table 2. The class given is cell-based, human. The method, then: as §1, §2, §3, §4, §5
The raw data in the .CEL files were normalized by the GCRMA method (robust multi-array analysis). It is implemented in Bioconductor (http://www.bioconductor.org/). […]

The next experiment deals with tumor growth. Description: MTT anticancer activity of Y, X and hydrolysis products (FIG. 4C). As to conditions: for IC50: read-out: IC50, inhibits tumor growth / anticancer activity. The class given is cell-based. The gist of the method: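 Tumour cell lines seeded 24 h beforehand (10,000–40,000/well by line), then exposed to drug for 48 h (HepG2, U2OS 72 h; MCF-7 96 h). MTT 0.5 mg/mL added for 1 h, formazan dissolved in DMSO, OD 490 nm. % growth relative to pre-treatment (T0) and control; % cytotoxicity used when TD<T0.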

Values after ≈ are worked out from the molar mass of the structure shown. Like-named read-outs stand apart in the source and are kept apart here.

Take `C/C=C(/C)C(=O)O[C@H]1[C@H](OC(=O)/C(C)=C\C)[C@@]2(CO)C(CC1(C)C)C1=CCC3[C@@]4(C)CC[C@H](O)C(C)(C)C4CC[C@@]3(C)[C@]1(C)[C@@H](O)[C@H]2O` (some centres unmarked) [ACH-Y]: the “IGFBP7 insulin-like growth factor binding protein 7, gene expression ratio to no drug control (D)” value in experiment [1] is −2.7 folds. Further, in experiment [1], the “IGFBP4 insulin-like growth factor binding protein 4, gene expression ratio to no drug control (D)” value is recorded as −2.4 folds. In experiment [1], the “IGFBP6 insulin-like growth factor binding protein 6, gene expression ratio to no drug control (D)” value is on record as −1.8 folds. Besides, the “IGFBP1 insulin-like growth factor binding protein 1, gene expression ratio to no drug control (D)” value in experiment [1] is listed as −1.8 folds. In addition, the “IGFBP3 insulin-like growth factor binding protein 3, gene expression ratio to no drug control (D)” value was −3.5 folds in experiment [1] (probe 210095_s_at) and −5.3 folds in experiment [1] (probe 212143_s_at). Further, the “PPP1R15A protein phosphatase 1, regulatory (inhibitor) subunit 15A, gene expression ratio to no drug control (D)” value amounted to 5.6 folds in experiment [2] (probe 37028_at) and 6.2 folds in experiment [2] (probe 202014_at). In addition, the “DUSP10 dual specificity phosphatase 10, gene expression ratio to no drug control (D)” value worked out at 7.1 folds in experiment [2] (probe 215501_s_at) and 5.7 folds in experiment [2] (probe 221563_at). The entries for the “ITGAV integrin, alpha V (vitronectin receptor), gene expression ratio to no drug control (D)” value in experiment [3] (probe 202351_at) and in experiment [3] (probe 236251_at) were −1.3 folds and −1.4 folds, respectively. Also, the “MTT activities of hydrolysed products of compound Y” value with tumor growth (FIG. 4C, 4D) is reported as “very weak”. The IC50 in the experiment with tumor growth (FIG. 4C) is 9.5 µg/mL (≈ 14.2 µM). The “anticancer activity retained after removal of sugars from Y” value in the experiment on tumor growth (relative to Y) stood at 40%.

In the case of `C/C=C(/C)C(=O)O[C@H]1[C@H](OC(=O)/C(C)=C\C)[C@@]2(CO)C(CC1(C)C)C1=CCC3[C@@]4(C)CC[C@H](O[C@@H]5OC(C(=O)O)[C@@H](O)C(O[C@@H]6O[C@@H](CO)C(O)C6O)C5O[C@@H]5OC(CO)[C@H](O)C(O)C5O)C(C)(C)C4CC[C@@]3(C)[C@]1(C)[C@@H](O)[C@H]2O` (stereo partly drawn) [Xanifolia-Y, 3-O-[β-D-galactopyranosyl (1→2)]-α-L-arabinofuranosy (1→3)-β-D-glucuronopyranosyl-21,22-O-diangeloyl-3β, 15α, 16α, 21β, 22α, 28-hexahydroxyolean-12-ene], the “IGFBP7 insulin-like growth factor binding protein 7, gene expression ratio to no drug control (D)” value in experiment [1] is reported as −1.4 folds. Further, the “IGFBP4 insulin-like growth factor binding protein 4, gene expression ratio to no drug control (D)” value in experiment [1] is −1.7 folds. For the same compound, the “IGFBP6 insulin-like growth factor binding protein 6, gene expression ratio to no drug control (D)” value in experiment [1] is reported as −1.3 folds. Also, the “IGFBP1 insulin-like growth factor binding protein 1, gene expression ratio to no drug control (D)” value in experiment [1] is −1.7 folds. For the same compound, the results for the “IGFBP3 insulin-like growth factor binding protein 3, gene expression ratio to no drug control (D)” value in experiment [1] (probe 210095_s_at) and in experiment [1] (probe 212143_s_at) were −4.0 folds and −3.7 folds, respectively. Moreover, the “PPP1R15A protein phosphatase 1, regulatory (inhibitor) subunit 15A, gene expression ratio to no drug control (D)” value in experiment [2] (probe 37028_at) stood at 2.4 folds; in experiment [2] (probe 202014_at), 2.6 folds. Also, the “DUSP10 dual specificity phosphatase 10, gene expression ratio to no drug control (D)” value was determined as 3.2 folds in experiment [2] (probe 215501_s_at) and 3.8 folds in experiment [2] (probe 221563_at). For the same compound, the figures for the “ITGAV integrin, alpha V (vitronectin receptor), gene expression ratio to no drug control (D)” value in experiment [3] (probe 202351_at) and in experiment [3] (probe 236251_at) were −1.8 folds and −1.4 folds, respectively. In addition, the IC50 in the experiment on tumor growth (FIG. 4C) was 4 µg/mL (≈ 3.5 µM); in the experiment with tumor growth it was 1.5 to 4.5 µg/mL (≈ 1.31 to 3.94 µM).

These data come from US10213451B2, “Methods and compounds for modulating the secretion or expression of adhesion proteins or angiopoietins of cells” (PACIFIC ARROW LIMITED, priority 2004, dated 2019).
